Patent publication US12600940B2, “Strains and processes for single cell protein or biomass production” (priority 2019, dated 2026)
In brackets after ≈: the same amount, converted by molar mass.

How the values were obtained:
[1] = tested on: VTT-E-193585 strain; experiment: Antibiotic susceptibility (MIC), CLSI M07 broth microdilution / agar dilution; assay type: cell-based, Xanthobacter sp.; conditions: comparison of MIC values of Table 5
Method: (§1) Escherichia coli ATCC 25922 was used as quality control strain and it was incubated in aerobic conditions, at +35±2° C. for 18±2 hours.

[2] = tested on: Escherichia coli ATCC 25922; experiment: Antibiotic susceptibility (MIC), quality control strain; assay type: cell-based; conditions: E. coli ATCC 25922, 18 h ± 2 h, aerobic, +35±2° C.; for MIC: Escherichia coli, ATCC25922, read-out: Minimum Inhibitory Concentration (MIC)
Method: as §1

[3] = tested on: VTT-E-193585 strain; experiment: Antibiotic susceptibility (MIC), CLSI M07 broth microdilution / agar dilution; assay type: cell-based, Xanthobacter sp.; conditions: VTT-E-193585, 48 h ± 1 h, aerobic, +35±2° C., cation-adjusted Mueller Hinton Broth, fosfomycin by agar dilution; for MIC: read-out: Minimum Inhibitory Concentration (MIC)

Compound | MIC for VTT-E-193585 compared with E. coli ATCC 25922 [1] | Minimum Inhibitory Concentration (MIC) [2] | Minimum Inhibitory Concentration (MIC) [3] | MIC [2] | MIC [3]
colistin | higher | 2 µg/mL | 4 µg/mL | – | –
CN(C)[C@@H]1C(O)=C(C(N)=O)C(=O)[C@@]2(O)C(O)=C3C(=O)c4c(O)cccc4[C@@](C)(O)[C@H]3C[C@@H]12 [Tetracycline, tetracycline] | – | – | – | 1 µg/mL (≈ 2.25 µM) | 0.25 µg/mL (≈ 0.563 µM)
C[C@@H]1O[C@@H]1P(=O)(O)O [Fosfomycin, fosfomycin] | higher | – | – | 0.5 µg/mL (≈ 3.62 µM) | 32 µg/mL (≈ 232 µM)
gentamicin | lower or comparable | 0.5 µg/mL | 0.5 µg/mL | – | –
[H]/N=C(/N)N[C@H]1[C@H](O)[C@@H](O)[C@H](O[C@@H]2O[C@@H](C)[C@](O)(C=O)[C@H]2O[C@@H]2O[C@@H](CO)[C@H](O)[C@@H](O)[C@@H]2NC)[C@@H](N/C(N)=N\[H])[C@@H]1O [Streptomycin, streptomycin] | lower or comparable | – | – | 4 µg/mL (≈ 6.88 µM) | 0.5 µg/mL (≈ 0.86 µM)
NC[C@H]1O[C@H](O[C@H]2[C@H](O)[C@@H](O[C@H]3O[C@H](CO)[C@@H](O)[C@H](N)[C@H]3O)[C@H](N)C[C@@H]2N)[C@H](O)[C@@H](O)[C@@H]1O [Kanamycin, kanamycin] | – | – | – | 4 µg/mL (≈ 8.26 µM) | 2 µg/mL (≈ 4.13 µM)
CC1(C)S[C@@H]2[C@H](NC(=O)[C@H](N)c3ccccc3)C(=O)N2[C@H]1C(=O)O [Ampicillin, ampicillin] | higher | – | – | 8 µg/mL (≈ 22.9 µM) | 16 µg/mL (≈ 45.8 µM)
